The values below come from patent US20030161893A1, “PTPase inhibitors and methods of using the same” (priority 2001, published 2003).

The subject of this experiment is Jak2/Stat5. The experiment is described as follows: IL-3-induced Jak2/Stat5 tyrosine phosphorylation in Baf3 cells. The experiment is classed as cell-based, murine. As to the method:
For induction of cellular protein phosphorylation by sodium stibogluconate or pervanadate, Baf3 cells were incubated in 0.1% FCS-RPMI 1640 medium at 37° C. for 16 hours. The cells were then washed twice in RPMI 1640 medium and incubated with sodium stibogluconate or pervanandate (0.1 mM) for various times prior to termination by lysing cells in cold lysis buffer (50 mM Tris, pH 7.4; 150 mM NaCl; 0.2 mM Na3VO4; 20 mm NaF; 1% Nonidet P-40; 2 mM PMSF; 20 μg/ml of Aprotinin and 1 mM of sodium molybdic acid). To determine the effect of sodium stibogluconate or potassium antimonyl tartrate on IL-3-induced Jak/Stat phosphorylation, Baf3 cells were deprived of the growth factor for 16 hours in 0.1% FCS RPMI 1640 medium and then incubated with or without sodium stibogluconate or potassium antimonyl tartrate for 10 minutes. IL-3 was next added to the cell suspension and incubated for various times. The Cells were then harvested and lysed in cold lysis buffer at 4° C. for 45 minutes. Total cell lysates (TCL) were separated in SDS-PAGE gels, blotted onto nitrocellulose membrane (Schleicher & Schuell), probed with specific antibodies and detected using an enhanced chemiluminescence kit (ECL, Amersham, Arlington Heights, Ill.).

SMILES strings stand for the structures.

As to `O.O.O.O.O.O.O.O.O.O=C([O-])[C@@H]1[O][Sb]2([O-])([O][Sb]34([OH])[O][C@H]([C@H](O)CO)[C@H]([O]3)[C@H](C(=O)[O-])[O]4)[O][C@H]([C@H](O)CO)[C@@H]1[O]2.[Na+].[Na+].[Na+]` [sodium stibogluconate], under “IL-3 stimulated, densitometry”, the “phosphotyrosine levels of Jak2 and Stat5 versus cells without drug” value is on record as “about twice”. Besides, the “Jak2/Stat5 tyrosine phosphorylation by drug alone” value (no IL-3, 37° C. for 16 hours) is “failed to induce Jak2/Stat5 tyrosine phosphorylation”.
